In patent US20190240282A1, “Nanocage” (IMPERIAL INNOVATIONS LIMITED, priority 2016, published 2019):

Tests used:
[1] = system: HT-29 cells; experiment: Phenotypic cell death assay using Vybrant cell staining and flow cytometry; format: cell-based; conditions: after 48 h, free drug alone, 5 μM
Procedure: HT-29 cells were trypsinised and cell viability was assessed using the Trypan blue exclusion assay—count cells treated with Trypan blue dye using a haemocytometer, and determine the volume of cell suspension that contains 5×10^5 live cells. Live cells (5×10^5) seeded into a 12-well plate with a final volume of 500 μL. This final 500 μL volume will consist of 5×10^5 cells+medium+drug-Au-ZZ-hFTN+anti-EGFR antibody (0.5-1 μg). The plate was incubated in a tissue culture incubator set at 37° C., 5% CO2, 95% humidity for 24 h or 48 h before the experiment was stopped. Uptake of drug-Au-ZZ-hFTN by cells was stopped by removing the 500 μL solution containing test or control compounds, trypsinising cells and pelleting cells in preparation for cytotoxicity assays, e.g. Vybrant cell apoptosis assay. […] Within 30 min after the incubation period, the stained cells were analysed by flow cytometry, using 488 nm excitation with green fluorescence emission for YOPRO R-1 (i.e., 530/30 bandpass) and red fluorescence emission for propidium iodide (i.e., 610/20 bandpass), gating on cells to exclude debris. […] The stained cell population will separate into three groups: live cells show a low level of green fluorescence, apoptotic cells show an incrementally higher level of green fluorescence, and dead cells show both red and green fluorescence. […]

[2] = system: HT-29 cells; experiment: LC-MS of lysed cells after dosing with the nanocage-antibody complex; format: cell-based; conditions: delivered by the nanocage with anti-EGFR; cells washed prior to lysis
Procedure: HT-29 cells were grown in DMEM medium with 10% FBS overnight. Cells were then treated with the nanocage-antibody complex (100 μl) at 37° C. for different 48 h and 72 h. After incubation, the cells were washed 3× with cold PBS. Re-suspended cells were analysed by LC-MS (Agilent 6550), data were quantified using a 20 ppm window for Dox and PI based on a calibrated standard;
Purified protein and cell extract samples were analysed by LCMS on an Agilent 6550. LC separation was achieved using a 1290 Infinity system (Agilent, Santa Clara, Calif.) and a Vydac 214MS C4 column, 2.1×150 mm and […], (Grace, Columbia, Md.) at a temperature of 35° C. with a buffer flow rate of 0.2 ml/min. with a denaturing mobile phase: buffer A was 0.1% formic acid in water and buffer B was 0.1% formic acid in acetonitrile. Elution of components was achieved using a linear gradient from 3% to 40% buffer B over 18.5 min. On-line mass spectra were accumulated on a 6550 quadrupole time-of-flight instrument with a dual electrospray Jet Stream source (Agilent). Mass spectra were acquired of the m/z range of 100-1700 at a rate of 0.6 spectra per second. […]
Further evaluation of drug delivery was performed by mass spectrometry. Following the dosing procedure used above, cells were washed prior to lysis and drug presence measured by LC-MS (Agilent 6550). […]

[3] = system: HT29 cells; experiment: Flow cytometry, antibody directed cell binding of GFP nanocage; format: cell-based
Procedure: (§1) Purified wt ZZ-GFP-hFTN (20 μg) was mixed with either anti-NK1.1 antibody (1 μg) or anti-EGFR antibody (1 μg) in 210 μl of PBS. For each assay, 50 μl of the nanocage-antibody was mixed with 1×10^6 cells of either HT29 or MNK1.1 in 100 μl. Cells were analysed an a BD Fortessa using the FITC channel (ex 488 nm; emm 530-30 nm) to observe GFP fluorescence. […] Nanocage antibody are shown with MNK1.1 cells (B) and HT29 cells (D);
(§2) Flow cytometry was performed on a BD Fortessa using the FITC channel to observe GFP (ex 488 nm; emm 530-30 nm; ToPro-3 was imaged in red channel (640 nm ex; 670/14 emission). Data was analysed using Flow-Jo software.
(§3) Ferritin fusions containing an N-terminal ZZ domain, in principle, should be able to bind to IgG isotype antibodies since the Z-domain is a synthetic derivative of an IgG binding domain from Staphylococcus aureus protein A. The inventors evaluated the specificity with which they can direct the targeting of the ferritin nanocage to specific cell types by direct antibody interactions. To establish a fluorescent basis for determining cell binding they used the GFP labelled wt ZZ-GFP-hFTN.

[4] = system: MNK1.1 cells; experiment: as above; format: cell-based, mouse
Procedure: as §1, §2, §3

## CC(=O)O[C@H]1C(=O)[C@@]2(C)[C@H]([C@H](OC(=O)c3ccccc3)[C@]3(O)C[C@H](OC(=O)[C@H](O)[C@@H](NC(=O)c4ccccc4)c4ccccc4)C(C)=C1C3(C)C)[C@]1(OC(C)=O)CO[C@@H]1C[C@@H]2O [Pac, Paclitaxel]
[1]
  cell death: ~9%

## COc1cccc2c1C(=O)c1c(O)c3c(c(O)c1C2=O)C[C@@](O)(C(=O)CO)C[C@@H]3O[C@H]1C[C@H](N)[C@H](O)[C@H](C)O1 [Dox, doxorubicin]
[2]
  drug presence in lysed cells by LC-MS: present in the lysed cells

## wt ZZ-GFP-hFTN: wild-type human heavy chain ferritin with N-terminal ZZ antibody binding domain and GFP, forms nanocage
[3]; absence of antibody
  binding of the nanocage to cells (GFP fluorescence): no discernible background binding
[3]; presence of anti-EGFR antibody
  binding of the nanocage to cells (GFP fluorescence): complete shift in the fluorescence of the population
[4]; absence of antibody
  binding of the nanocage to cells (GFP fluorescence): no discernible background binding
[4]; presence of anti-NK1.1 antibody
  binding of the nanocage to cells (GFP fluorescence): complete shift in the fluorescence of the population

## CC[N+](C)(CC)CCC[n+]1c(-c2ccccc2)c2cc(N)ccc2c2ccc(N)cc21.[I-].[I-] [PI, propidium iodide]
[2]
  drug presence in lysed cells by LC-MS: present in the lysed cells
